Columns and labels:
phosphorylation of IκBα = experiment: LPS induced NF-κB activation: IκBα phosphorylation in RAW264.7 cells (western blot); format: cell-based, mouse; settings: Raw 264.7 cells pre-incubated with 4 μM for 2 h, 20 ng/ml LPS, 20 minutes, western blot
IKKβ [1] = target: T1, IKKβ (Homo sapiens, UniProt O14920); experiment: IKKβ kinase inhibition; format: biochemical; settings: table of derivatives; read-out: IKKβ (IC50)
T1 sequence (O14920 1-756): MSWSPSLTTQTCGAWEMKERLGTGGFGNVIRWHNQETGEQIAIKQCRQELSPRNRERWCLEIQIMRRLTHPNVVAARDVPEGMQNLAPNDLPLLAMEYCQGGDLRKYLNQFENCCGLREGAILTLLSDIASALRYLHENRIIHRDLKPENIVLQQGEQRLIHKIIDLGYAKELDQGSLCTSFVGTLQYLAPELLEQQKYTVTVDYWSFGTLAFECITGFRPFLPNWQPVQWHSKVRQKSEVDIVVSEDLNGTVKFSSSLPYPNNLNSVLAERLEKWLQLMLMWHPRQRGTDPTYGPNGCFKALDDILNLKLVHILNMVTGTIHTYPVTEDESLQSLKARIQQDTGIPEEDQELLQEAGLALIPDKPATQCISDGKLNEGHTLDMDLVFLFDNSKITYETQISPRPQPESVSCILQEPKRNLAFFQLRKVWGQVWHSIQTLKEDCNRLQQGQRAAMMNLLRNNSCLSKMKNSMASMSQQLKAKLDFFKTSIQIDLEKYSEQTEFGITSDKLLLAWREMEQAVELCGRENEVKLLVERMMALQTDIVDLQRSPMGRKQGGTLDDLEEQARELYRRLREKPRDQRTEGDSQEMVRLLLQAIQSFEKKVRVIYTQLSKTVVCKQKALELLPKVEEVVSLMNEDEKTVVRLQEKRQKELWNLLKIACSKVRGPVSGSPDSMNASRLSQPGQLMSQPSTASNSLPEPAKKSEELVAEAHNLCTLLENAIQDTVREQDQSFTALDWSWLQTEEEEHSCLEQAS
From the text: To further explore how (+)-ainsliadimer A inactivates IKKα/β, we conducted the molecular dynamics (MD) simulations using the first crystal structure of IKKβ^29 to sample the conformational states of IKKβ upon 223 binding. […] We next asked whether 223 could directly affect IKKβ kinase activity.

NF-κB activation = NF-κB activation (SAR analogs and biotin probes)
From the text: In order to evaluate which of them is critical for the binding of 223, we individually mutated these nine cysteine residues of IKKβ into alanines.

[2] = test system: BGC-823 human gastric adenocarcinoma xenograft; experiment: BGC-823 xenograft in nude mice; format: in vivo; settings: 223 25 mg/kg, qdx8; HCPT 30 mg/kg, q6dx2
Procedure: Next we further examined anti-tumor effect of 223 in vivo. Nude mice bearing a BGC-823 human gastric adenocarcinoma xenograft were treated with vehicle or 223 (25 mg/kg, qdx8) or 10-hydroxycamptothecin (HCPT), a widely used anti-tumor drug (30 mg/kg, q6dx2).

IKKα = target: T2, IKKα (Homo sapiens, UniProt O15111); experiment: Pull-down from 293T cell lysates with streptavidin agarose beads; format: binding
T2 construct: endogenous in cells; host or cells: 293T
Procedure: (§1) To identify cellular proteins interacting with 223, we performed pull-down experiments using Probe and NC as the positive and negative probe, respectively. 293T cell lysates were incubated with streptavidin agarose beads which were pre-coupled with positive probe or negative probe. The proteins precipitated by streptavidin agarose beads were resolved by SDS-PAGE and stained with silver. […] We further monitored the presences of IKKα and IKKβ in the precipitates by immunoblotting.

IKKβ [3] = target: T1, IKKβ; experiment: as above; format: binding
Procedure: as §1

recombinant Flag-IKKα = target: T3, recombinant Flag-IKKα (Homo sapiens, UniProt O15111); experiment: Binding to purified recombinant protein (SDS-PAGE, streptavidin blot); settings: increasing concentrations
T3 construct: made in house; host or cells: 293T cells (transient transfection, anti-Flag purification)
Procedure: To determine whether 223 directly binds to IKKα and IKKβ, we generated recombinant IKKα and IKKβ proteins for further analysis. 293T cells were transfected with Flag-IKKα or Flag-IKKβ plasmid, and the recombinant Flag-IKKα or Flag-IKKβ was captured by anti-Flag agarose beads and was then eluted off the beads using Flag peptide. The purified Flag-IKKα or Flag-IKKβ was incubated with DMSO or increasing concentrations of Probe, and then the mixtures were resolved by SDS-PAGE, followed by immunoblotting with streptavidin or anti-Flag antibody.

[4] = target: T4, IKKβ C46 containing peptide (#1, #2; amino acids 41-53) (Homo sapiens, UniProt O14920); experiment: Peptide binding by MALDI-TOF
T4 construct: encompasses amino acids 41-53 of human IKKβ; made in house; host or cells: chemical peptide synthesis
Procedure: (§2) This peptide was tested for binding to 223 and probe by using MALDI-TOF (Matrix-Assisted […] Desorption/Ionization Time of Flight). m/z values at 2,047.978 and 2,479.259 were well matched with the calculated weights of #1+223 and #1+Probe, respectively. […] As expected, the peptide #2 containing amino acids 41-53 of human IKKβ interacted with both 223 and probe.

[5] = test system: IKKβ C46 containing peptide (#1, #2; amino acids 41-53); experiment: Peptide binding by MALDI-TOF; set-up: species or system human
Procedure: as §2

[6] = test system: peptides 1A, 2A, 1S and 2S (cysteine 46 replaced by alanine or serine); experiment: Peptide binding by MALDI-TOF; set-up: species or system human
[7] = test system: IKKβ C215 containing peptides #3 and #4; experiment: Peptide binding by MALDI-TOF; set-up: species or system human

T2 sequence (O15111 whole entry): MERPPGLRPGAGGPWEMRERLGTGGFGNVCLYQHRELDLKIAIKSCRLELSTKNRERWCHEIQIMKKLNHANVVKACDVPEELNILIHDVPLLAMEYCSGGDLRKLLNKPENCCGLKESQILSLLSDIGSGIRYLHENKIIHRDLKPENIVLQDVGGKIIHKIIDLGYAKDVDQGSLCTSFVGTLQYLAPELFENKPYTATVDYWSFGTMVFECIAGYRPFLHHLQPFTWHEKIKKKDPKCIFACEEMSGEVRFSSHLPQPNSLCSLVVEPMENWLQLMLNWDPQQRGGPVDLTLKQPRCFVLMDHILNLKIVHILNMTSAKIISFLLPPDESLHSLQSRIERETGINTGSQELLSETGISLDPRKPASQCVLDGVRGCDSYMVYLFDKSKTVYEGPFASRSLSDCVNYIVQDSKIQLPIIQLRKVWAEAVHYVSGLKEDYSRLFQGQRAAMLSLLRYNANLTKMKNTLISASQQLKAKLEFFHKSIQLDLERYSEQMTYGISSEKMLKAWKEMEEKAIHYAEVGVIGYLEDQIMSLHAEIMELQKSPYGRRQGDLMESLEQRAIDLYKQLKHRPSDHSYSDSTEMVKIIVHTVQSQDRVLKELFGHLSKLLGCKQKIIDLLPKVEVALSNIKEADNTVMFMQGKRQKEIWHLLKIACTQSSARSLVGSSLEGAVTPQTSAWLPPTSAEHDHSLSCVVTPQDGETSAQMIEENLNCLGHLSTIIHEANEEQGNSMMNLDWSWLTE
T3 sequence (O15111 whole entry): as above

C=C1C(=O)O[C@@H]2[C@@H]3[C@@H](C[C@@]4(O)[C@]3(O)CC[C@]43C(=O)C[C@H]4C(=C)CC[C@H]5C(=C)C(=O)O[C@@H]5[C@H]43)C(=C)CC[C@@H]12 [Compound 1]
phosphorylation of IκBα (phosphorylation of IκBα): effectively blocked
IC50 (IKKβ [1]): 75.7 nM

C=C1C(=O)O[C@@H]2[C@@H]3[C@@H](C[C@@]45OC(C)(C)O[C@@]34CC[C@]53C(=O)C[C@H]4C(=C)CC[C@H]5C(=C)C(=O)O[C@@H]5[C@H]43)C(=C)CC[C@@H]12 [Compound 2]
phosphorylation of IκBα (phosphorylation of IκBα): effectively blocked
IC50 (IKKβ [1]): 56 nM

C=C1CC[C@H]2C(CN(C)C)C(=O)O[C@@H]2[C@@H]2[C@H]1C[C@@]13OC(C)(C)O[C@@]21CC[C@]31C(=O)C[C@H]2C(=C)CC[C@H]3C(CN(C)C)C(=O)O[C@@H]3[C@H]21 (stereo partly shown) [Compound 3]
phosphorylation of IκBα (phosphorylation of IκBα): effectively blocked
IC50 (IKKβ [1]): 41.8 nM

C=C1C(=O)O[C@@H]2[C@@H]3[C@@H](C[C@H](O)[C@]34CC[C@]3(O)[C@@H]5[C@H]6OC(=O)C(=C)[C@@H]6CCC(=C)[C@@H]5C[C@]43O)C(=C)CC[C@@H]12 [Compound 224]
biological activity (initial SAR) (NF-κB activation): fully retain the biological activity

C=C1CC[C@@H]2[C@H](OC(=O)[C@H]2C)[C@@H]2[C@H]1C[C@@]1(O)[C@]2(O)CC[C@]12C(=O)C[C@H]1C(=C)CC[C@@H]3[C@H](OC(=O)[C@H]3C)[C@H]12 [Compound 225]
biological activity (initial SAR) (NF-κB activation): inactive

CC[C@@]1(O)C(=O)OCc2c1cc1n(c2=O)Cc2cc3cc(O)ccc3nc2-1 [HCPT, 10-hydroxycamptothecin, reference compound]
side effects and body weight during administration [2]: significant body weight loss

C=C1C(=O)O[C@@H]2[C@@H]3[C@@H](C[C@H](OC(=O)CCOCCOCCOCCNC(=O)CCCC[C@@H]4SC[C@@H]5NC(=O)N[C@@H]54)[C@]34CC[C@]3(O)[C@@H]5[C@H]6OC(=O)C(=C)[C@@H]6CCC(=C)[C@@H]5C[C@]43O)C(=C)CC[C@@H]12 [Probe]
pull-down of IKKα (immunoblotting) (IKKα): specifically pulled down
pull-down of IKKβ (immunoblotting) (IKKβ [3]): specifically pulled down
interaction with recombinant IKKα (recombinant Flag-IKKα): strong interaction
binding to peptide #1 [4]: could bind
interaction with peptide #2 [5]: interacted
binding to peptides 1A, 2A, 1S and 2S [6]: lost the ability to bind
association with peptides #3 and #4 [7]: no association

— patent publication US9670226B2, “Sesquiterpenoids” (National Institute of Biological Sciences, Beijing, priority 2014, dated 2017)
